Series [1] in a line: Solubility of drug-linkers in 20% MeCN/H2O. Type of series: physicochemical. The note with it: tested at a concentration of 10 mg/mL. As to the method: The solubility of exemplary drug-linker conjugates in aqueous solutions was evaluated. Linkers utilized in drug conjugates may have aqueous solubility to enable conjugation in aqueous media amenable to protein solubilization. Furthermore, linkers with aqueous solubility are considered hydrophilic, and may confer to the drug conjugate a reduced propensity to aggregate relative to standard hydrophobic linkers in the literature. The following exemplary drug-linkers were tested in an aqueous solution comprising 20% acetonitrile (MeCN/H2O) for solubility at a concentration of 10 mg/mL.

The nature of series [2]: In vitro stability of drug-linkers in human whole blood (parent and released dexamethasone, LC-MS/MS). The note with it: for Calculated Conc. for dexamethasone in human whole blood: released dexamethasone.
Protocol: General Experimental Procedure Human Blood Incubation Human blood was collected the morning of the experiment from at least 3 individuals using K2EDTA as the anticoagulant. An equal volume from each individual was combined for use in the experiment. The experiment started no more than 2 hours after the blood collection. All drug-linker conjugates were solubilized in DMSO to form each 10 mM stock solution. Dosing solution for each linker was prepared by serial dilution of each stock solution using 1:3 acetonitrile:water. All solutions were kept on ice during the experiment.
Human blood was pre-warmed in a 37° C. water bath in an appropriate volume to collect samples over a time course from 0 through 6 hours. Incubating blood was mixed well just prior to sampling to give a homogenous mixture. Aliquots of blood were removed at appropriate time points, added to cold stopping solution, which was methanol containing an appropriate internal standard, and mixed rigorously. The samples were centrifuged at 4000 RPM for 10 minutes after which equal volumes of the supernatant fractions were diluted with cold deionized water. The samples were then ready for analysis.
(§1) A Thermo LX-2 ultra-performance liquid chromatography system coupled with a Sciex API5000 triple quadrupole mass spectrometer was used for the analysis. The payload and drug-linkers were retained and separated by a C18 column and detected by the mass spectrometer. […] Samples were kept in cold stack set at 5° C.
Series [3] can be described thus: In vitro stability of drug-linkers in rat liver lysosomal lysate (parent and released dexamethasone, LC-MS/MS). The conditions noted are these: for Calculated Conc. for dexamethasone rat lysomeal lysate: released dexamethasone.
Protocol: Rat Liver lysosomes were available commercially with a pool of 6 animals. All linker compounds were solubilized in DMSO to form each 10 mM stock solution. Dosing solution for each linker was prepared by serial dilution of each stock solution using 1:3 acetonitrile: water. All solutions were kept on ice during the experiment.
Rat lysosomes were pre-warmed in a 37° C. water bath in an appropriate volume to collect samples over a time course from 0 minutes through 6 hours. Incubating lysosomes were mixed well just prior to sampling to give a homogenous mixture. Aliquots of lysosomes were removed at appropriate time points, added to cold stopping solution, which was methanol containing an appropriate internal standard, and mixed rigorously. The samples were centrifuged at 4000 RPM for 10 minutes after which equal volumes of supernatant were diluted with cold deionized water. The samples were ready for analysis.
as §1

For `C[C@@H]1C[C@H]2[C@@H]3CCC4=CC(=O)C=C[C@]4(C)[C@@]3(F)[C@@H](O)C[C@]2(C)[C@@]1(O)C(=O)COP(=O)(O)OP(=O)(O)OCCNC(=O)COC1C#CCCCCC1` (stereo partly drawn) [Drug Linker 1-4, 2-(2-(cyclooct-2-yn-1-yloxy)acetamido)ethyl(2-((8 S,9R,10S,11S,13 S,14 S,16R,17R)-9-fluoro-11,17-dihydroxy-10,13,16-trimethyl-3-oxo-6,7,8,9,10,11,12,13,14,15,16,17-dodecahydro-3H-cyclopenta[a]phenanthren-17-yl)-2-oxoethyl) dihydrogen pyrophosphate], the “Measured Solubility in 20% MeCN/H2O” value in series [1] is over 10000 µg/mL. In addition, the “Calculated Conc. for each compound in human whole blood” value in series [2] (0 m, 37° C.) was 1617 nM; in series [2] (1 hr, 37° C.) it was 1421 nM; in series [2] (6 hr, 37° C.), 1400 nM; in series [2] (Matrix spiking (time 0 sample, blood pretreated with stopping reagent)), 3059 nM. Moreover, the “Calculated Conc. for dexamethasone in human whole blood” value in series [2] (0 m) is 0 nM; in series [2] (1 hr) it was 0 nM; in series [2] (6 hr), 0 nM; in series [2] (Matrix Spiking) it was 2 nM. Besides, the “Calculated Conc. for each compound in rat lysomal lysate” value is reported as 1148.2 nM in series [3] (0 m, 37° C.); 158.2 nM in series [3] (5 m, 37° C.); 19.0 nM in series [3] (10 m, 37° C.); 3.7 nM in series [3] (15 m, 37° C.); 2487.3 nM in series [3] (Matrix spiking (lysosomes pretreated with stopping reagent)). The “Calculated Conc. for dexamethasone rat lysomeal lysate” value is reported as 4.7 nM in series [3] (0 m); 320.7 nM in series [3] (5 m); 559.4 nM in series [3] (10 m); 831.7 nM in series [3] (15 m); 1059.6 nM in series [3] (30 m); 1148.8 nM in series [3] (1 hr). Moreover, the “Calculated Conc. for dexamethasone rat lysomeal lysate” value in series [3] (2 hr) is 854.5 nM; in series [3] (3 hr), 841.9 nM; in series [3] (6 hr), 826.6 nM.

These data come from patent US11510993B2, “Antibody drug conjugate for anti-inflammatory applications” (Merck Sharp & Dohme Corp., priority 2015, dated 2022).
